Laboratory results taken from US20150198597A1, “Method for monitoring PARP activity in cells by PARP activation” (Stichting Het Nederlands Kanker Instituut, priority 2012, published 2015).

Test system: PARP
Conditions: PBMCs; H2O2 at 0, 12.5, 50, 200 and 800 μM; treated and maintained on ice (0-4° Celsius) for 60 minutes; FIG. 3B
Experimental: Cells were treated on ice (at 0-4° Celsius) and cells were maintained on ice (at 0-4° Celsius) for 60 minutes. Cells were immediately lysed thereafter and PAR levels were measured by using the Trevigen® PARP Pharmacodynamic assay II. The PAR levels (y-axis) are plotted against the H2O2 concentration (x-axis).
The assay was used to quantify the amount of PAR in peripheral blood mononuclear cells (PBMC).
Peripheral Blood Mononuclear Cells (PBMCs) were prepared by drawing 8 ml blood from a subject in a BD vacutainer CPT-citrate tube (RT) at the clinic. Invert the tubes three times to mix the anti-coagulant (1 ml) with the blood and keep the tube at room temperature (RT). Centrifuge for 25 minutes at 1500×g at RT, and invert the tubes three times. Pour the upper layer into a 50 ml Falcon tube on ice and incubate on ice for 5 minutes. Adjust the total volume to 50 ml with ice-cold PBS and centrifuge 10 minutes at 330×g at 4° Celsius. Decant the supernatant and place the tube inverted on filter paper for 2 seconds. Re-suspend the pellet in 10 ml ice-cold PBS. Count the PBMCs with a hema-cytometer and centrifuge 10 minutes at 330×g at 4° Celsius. Re-suspend the pellet at 2×10exp6 PBMC/500 μl in PBS and transfer to a pre-chilled 2.0 ml tube on ice.
For example, cells are suspended at 2×10E6 PBMC/500 μl culture PBS. […]

In the case of `OO` [H2O2, hydrogen peroxide], the PAR levels is reported as “Higher PAR levels were found with increasing H2O2 treatment concentration”.
